Measurements taken from ChEMBL document CHEMBL1121755, “Comparison of the inhibition of methotrexate-sensitive and -resistant Lactobacillus casei cell cultures with purified Lactobacillus casei dihydrofolate reductase by 4,6-diamino-1,2-dihydro-2,2-dimethyl-1-(3-substituted-phenyl)-s-triazines. Use of quantitative structure-activity relationships in …” (1981).

Each compound was assayed against Dihydrofolate reductase (Lactobacillus casei) (UniProt P00381). Details: Lacticaseibacillus casei.
Chain of Dihydrofolate reductase (Lactobacillus casei) (P00381 whole entry): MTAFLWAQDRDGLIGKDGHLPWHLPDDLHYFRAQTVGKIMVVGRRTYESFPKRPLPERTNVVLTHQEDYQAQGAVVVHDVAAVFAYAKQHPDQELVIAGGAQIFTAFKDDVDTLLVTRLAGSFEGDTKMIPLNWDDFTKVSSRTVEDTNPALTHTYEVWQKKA
Description: Inhibitory activity against Lactobacillus casei dihydrofolate reductase (DHFR)

Row | Compound | log 1/Ki app
1 | CC1(C)N=C(N)N=C(N)N1c1cccc(F)c1 | 3.29
2 | CC1(C)N=C(N)N=C(N)N1c1cccc(COc2ccccc2)c1 | 5.44
3 | COc1cccc(OCc2cccc(N3C(N)=NC(N)=NC3(C)C)c2)c1 | 5.56
4 | CCCCCCCCCCCCOc1cccc(N2C(N)=NC(N)=NC2(C)C)c1 | 4.63
5 | CCCCCCc1cccc(N2C(N)=NC(N)=NC2(C)C)c1 | 4.96
6 | CC1(C)N=C(N)N=C(N)N1c1cccc(COc2cccc(C#N)c2)c1 | 5.31
7 | CC(C)(C)c1cccc(N2C(N)=NC(N)=NC2(C)C)c1 | 3.2
8 | CC1(C)N=C(N)N=C(N)N1c1cccc(I)c1 | 3.73
9 | CC(=O)c1cccc(N2C(N)=NC(N)=NC2(C)C)c1 | 2.87
10 | CC1(C)N=C(N)N=C(N)N1c1cccc(OCCCCOc2cccc(C(F)(F)F)c2)c1 | 4.79
11 | CC1(C)N=C(N)N=C(N)N1c1cccc(COc2cccc(NC(N)=O)c2)c1 | 5.36
12 | CC(=O)Nc1cccc(OCc2cccc(N3C(N)=NC(N)=NC3(C)C)c2)c1 | 5.45
13 | CCCCCCCCCCCCCOc1cccc(N2C(N)=NC(N)=NC2(C)C)c1 | 4.81
14 | CCOC(=O)c1cccc(N2C(N)=NC(N)=NC2(C)C)c1 | 3.21
15 | Cc1cccc(OCc2cccc(N3C(N)=NC(N)=NC3(C)C)c2)c1 | 5.33
16 | CC1(C)N=C(N)N=C(N)N1c1cccc(COc2cccc(Cl)c2)c1 | 5.41
17 | CC1(C)N=C(N)N=C(N)N1c1cccc(OCCCCOc2ccccc2)c1 | 4.79
18 | CCc1cccc(OCc2cccc(N3C(N)=NC(N)=NC3(C)C)c2)c1 | 5.31

Row | Compound | log 1/Ki app
19 | CCCCCCCCCCCOc1cccc(N2C(N)=NC(N)=NC2(C)C)c1 | 4.54
20 | CC1(C)N=C(N)N=C(N)N1c1cccc(OCCOc2ccccc2)c1 | 3.74
21 | CC1(C)N=C(N)N=C(N)N1c1cccc(OCc2ccccc2)c1 | 4.2
22 | CC1(C)N=C(N)N=C(N)N1c1cccc(COc2cccc(CO)c2)c1 | 5.45
23 | CC1(C)N=C(N)N=C(N)N1c1cccc(CNc2cc(C(N)=O)cc(C(N)=O)c2)c1 | 4.74
24 | CC1(C)N=C(N)N=C(N)N1c1cccc(COc2cccc(NC(=N)S)c2)c1 | 4.36
25 | Cc1cccc(N2C(N)=NC(N)=NC2(C)C)c1 | 3.07
26 | CC1(C)N=C(N)N=C(N)N1c1cccc(S(=O)(=O)F)c1 | 3.21
27 | CC1(C)N=C(N)N=C(N)N1c1cccc(Br)c1 | 3.69
28 | CC(C)c1cccc(OCc2cccc(N3C(N)=NC(N)=NC3(C)C)c2)c1 | 5.41
29 | CC1(C)N=C(N)N=C(N)N1c1cccc([N+](=O)[O-])c1 | 3.56
30 | CC1(C)N=C(N)N=C(N)N1c1cccc(OCCOc2cccc(C(F)(F)F)c2)c1 | 4.1
31 | CC(C)(C)c1cccc(OCc2cccc(N3C(N)=NC(N)=NC3(C)C)c2)c1 | 5.44
32 | CCCCOc1cccc(N2C(N)=NC(N)=NC2(C)C)c1 | 4.2
33 | CC1(C)N=C(N)N=C(N)N1c1cccc(OCc2ccc(Cl)c(Cl)c2)c1 | 4.41
34 | CCCCCCCCCOc1cccc(N2C(N)=NC(N)=NC2(C)C)c1 | 4.71
35 | CCCCCCCCCCCCCCOc1cccc(N2C(N)=NC(N)=NC2(C)C)c1 | 4.5
